Results taken from patent US6534524B1, “Indazole compounds and pharmaceutical compositions for inhibiting protein kinases, and methods for their use” (Agouron Pharmaceuticals, Inc., priority 1999, dated 2003).

Test system: human umbilical vein endothelial cells (HUVEC)
Experiment: HUVEC proliferation assay (VEGF-stimulated, MTT);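 on % inhibition of the proliferation of HUVEC: relative to VEGF-stimulated control minus starvation-medium baseline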
Type: cell-based
Settings: crude reaction mixtures; for % inhibition of the proliferation of HUVEC: Library II, Y=S; for % inhibition: Library III, HUVEC proliferation, nominal concentration of 0.5 nM
Method: HUVEC Proliferation Assay
This assay determines the ability of a test compound to inhibit the growth factor-stimulated proliferation of human umbilical vein endothelial cells (“HUVEC”). HUVEC cells (passage 3-4, Clonetics, Corp.) were thawed into EGM2 culture medium (Clonetics Corp) in T75 flasks. Fresh EGM2 medium was added to the flasks 24 hours later. Four or five days later, cells were exposed to another culture medium (F12K medium supplemented with 10% fetal bovine serum (FBS), 60 μg/mL endothelial cell growth supplement (ECGS), and 0.1 mg/mL heparin). Exponentially-growing HUVEC cells were used in experiments thereafter. Ten to twelve thousand HUVEC cells were plated in 96-well dishes in 100 μl of rich, culture medium (described above). The cells were allowed to attach for 24 hours in this medium. The medium was then removed by aspiration and 105 μl of starvation media (F12K+1% FBS) was added to each well. After 24 hours, 15 μl of test agent dissolved in 1% DMSO in starvation medium or this vehicle alone was added into each treatment well; the final DMSO concentration was 0.1%. One hour later, 30 μl of VEGF (30 ng/mL) in starvation media was added to all wells except those containing untreated controls; the final VEGF concentration was 6 ng/mL. Cellular proliferation was quantified 72 hours later by MTT dye reduction, at which time cells were exposed for 4 hours MTT (Promega Corp.).
For screening compound library plates, one or two concentrations (one well per concentration) were employed, and the % inhibition was calculated by the following formula:
% inhibition=(control−test)÷(control−starvation)
% inhibition=(control-treated)/(control-starvation)×100

[1] = 0.5 mM (column head; text: nominal 0.5 nM)
[2] = 2 mM (column head; text: nominal 2 nM)

Row | SMILES | % inhibition of the proliferation of HUVEC [1] [%] | % inhibition of the proliferation of HUVEC [2] [%] | % inhibition [%]
1 | CN(C)CC(C)(C)CNC(=O)c1ccccc1Sc1ccc2c(/C=C/c3ccccn3)n[nH]c2c1 | 38 | 5 | 
2 | O=C(NC1CCC(O)CC1)c1ccccc1Sc1ccc2c(C=Cc3ccccn3)n[nH]c2c1 (stereo not shown) | 23 | 6 | 
3 | O=C(O)CCNC(=O)c1ccccc1Sc1ccc2c(/C=C/c3ccccn3)n[nH]c2c1 | 4 | 20 | 
4 | COCCNC(=O)c1ccccc1Sc1ccc2c(/C=C/c3ccccn3)n[nH]c2c1 | 21 | 60 | 
5 | O=C(NCCCn1ccnc1)c1ccccc1Sc1ccc2c(/C=C/c3ccccn3)n[nH]c2c1 | 23 | 23 | 
6 | NS(=O)(=O)c1ccc(CCNC(=O)c2ccccc2Sc2ccc3c(/C=C/c4ccccn4)n[nH]c3c2)cc1 | 26 | 37 | 
7 | CCCCN(CC)CCNC(=O)c1ccccc1Sc1ccc2c(/C=C/c3ccccn3)n[nH]c2c1 | 2 | 6 | 
8 | CN(C)c1ccc(CNC(=O)c2ccccc2Sc2ccc3c(/C=C/c4ccccn4)n[nH]c3c2)cc1 | 32 | 24 | 
9 | O=C(NC(CO)CO)c1ccccc1Sc1ccc2c(/C=C/c3ccccn3)n[nH]c2c1 | 48 | 8 | 
10 | CC(=O)NCCNC(=O)c1ccccc1Sc1ccc2c(/C=C/c3ccccn3)n[nH]c2c1 | 15 | 27 | 
11 | CN1CCN(NC(=O)c2ccccc2Sc2ccc3c(/C=C/c4ccccn4)n[nH]c3c2)CC1 | 19 | −1 | 
12 | CCCCC(CC)NC(=O)c1ccccc1Sc1ccc2c(/C=C/c3ccccn3)n[nH]c2c1 (stereo not shown) | 31 | 30 | 
13 | CCCCCC(C)NC(=O)c1ccccc1Sc1ccc2c(/C=C/c3ccccn3)n[nH]c2c1 (stereo not shown) | −1 | 14 | 
14 | CC(C)CCC(C)NC(=O)c1ccccc1Sc1ccc2c(/C=C/c3ccccn3)n[nH]c2c1 (stereo not shown) | 6 | 44 | 
15 | CCCC(CCC)NC(=O)c1ccccc1Sc1ccc2c(/C=C/c3ccccn3)n[nH]c2c1 | 1 | 52 | 
16 | CC(C)C(NC(=O)c1ccccc1Sc1ccc2c(/C=C/c3ccccn3)n[nH]c2c1)C(C)C | 18 | −2 | 
17 | O=C1CSC(NC(=O)c2ccccc2Sc2ccc3c(/C=C/c4ccccn4)n[nH]c3c2)=N1 | 9 | −9 | 
18 | CCCCC(=O)NNC(=O)c1ccccc1Sc1ccc2c(/C=C/c3ccccn3)n[nH]c2c1 | 40 | 94 | 
19 | O=C(NCCC1OCCO1)c1ccccc1Sc1ccc2c(/C=C/c3ccccn3)n[nH]c2c1 | 38 | 68 | 
20 | CC(C)OCCCNC(=O)c1ccccc1Sc1ccc2c(/C=C/c3ccccn3)n[nH]c2c1 | 34 | 99 | 
21 | CC(NC(=O)c1ccccc1Sc1ccc2c(/C=C/c3ccccn3)n[nH]c2c1)c1ccccc1 (stereo not shown) | 30 | 94 | 
22 | Cc1ccccc1CNC(=O)c1ccccc1Sc1ccc2c(/C=C/c3ccccn3)n[nH]c2c1 | 24 | 99 | 
23 | Cc1ccc(CNC(=O)c2ccccc2Sc2ccc3c(/C=C/c4ccccn4)n[nH]c3c2)cc1 | 20 | 92 | 
24 | O=C(NCCc1ccccc1)c1ccccc1Sc1ccc2c(/C=C/c3ccccn3)n[nH]c2c1 | 15 | 99 | 
25 | CN(NC(=O)c1ccccc1Sc1ccc2c(/C=C/c3ccccn3)n[nH]c2c1)c1ccccc1 | 16 | 37 | 

Row | SMILES | % inhibition of the proliferation of HUVEC [1] [%] | % inhibition of the proliferation of HUVEC [2] [%] | % inhibition [%]
26 | O=C(NN1CCCC1)c1ccccc1Sc1ccc2c(/C=C/c3ccccn3)n[nH]c2c1 | 17 | 23 | 
27 | O=C(NNC(=O)c1ccccc1Sc1ccc2c(/C=C/c3ccccn3)n[nH]c2c1)c1ccc[nH]1 | 60 | 99 | 
28 | Cc1ccc(NC(=O)c2ccccc2Sc2ccc3c(/C=C/c4ccccn4)n[nH]c3c2)cc1O |  |  | 6
29 | O=Nc1c(O)nc(O)nc1NC(=O)c1ccccc1Sc1ccc2c(/C=C/c3ccccn3)n[nH]c2c1 |  |  | −18
30 | O=C(Nc1ncc([N+](=O)[O-])s1)c1ccccc1Sc1ccc2c(/C=C/c3ccccn3)n[nH]c2c1 |  |  | −15
31 | O=C(Nc1ccc2c(c1)OCCO2)c1ccccc1Sc1ccc2c(/C=C/c3ccccn3)n[nH]c2c1 |  |  | −1
32 | O=C(Nc1cccc(F)c1)c1ccccc1Sc1ccc2c(/C=C/c3ccccn3)n[nH]c2c1 |  |  | −11
33 | O=C(Nc1cccc2cccnc12)c1ccccc1Sc1ccc2c(/C=C/c3ccccn3)n[nH]c2c1 |  |  | 3
34 | CC(C)Oc1cccc(NC(=O)c2ccccc2Sc2ccc3c(/C=C/c4ccccn4)n[nH]c3c2)c1 |  |  | 1
35 | CSc1nc(NC(=O)c2ccccc2Sc2ccc3c(/C=C/c4ccccn4)n[nH]c3c2)ns1 |  |  | −27
36 | Cn1nc(C2CC2)cc1NC(=O)c1ccccc1Sc1ccc2c(/C=C/c3ccccn3)n[nH]c2c1 |  |  | −47
37 | O=C(Nc1ccc2cccc(O)c2n1)c1ccccc1Sc1ccc2c(/C=C/c3ccccn3)n[nH]c2c1 |  |  | 33
38 | O=C(Nc1ccc(C(F)(F)F)cn1)c1ccccc1Sc1ccc2c(/C=C/c3ccccn3)n[nH]c2c1 |  |  | 20
39 | O=C(Nc1ncc(Cl)s1)c1ccccc1Sc1ccc2c(/C=C/c3ccccn3)n[nH]c2c1 |  |  | −29
40 | CCc1cccc(CC)c1NC(=O)c1ccccc1Sc1ccc2c(/C=C/c3ccccn3)n[nH]c2c1 |  |  | −17
41 | CC(C)c1cccc(C(C)C)c1NC(=O)c1ccccc1Sc1ccc2c(/C=C/c3ccccn3)n[nH]c2c1 |  |  | −7
42 | Cc1nc(NC(=O)c2ccccc2Sc2ccc3c(/C=C/c4ccccn4)n[nH]c3c2)n[nH]1 |  |  | 0
43 | COC(=O)c1ccc(NC(=O)c2ccccc2Sc2ccc3c(/C=C/c4ccccn4)n[nH]c3c2)o1 |  |  | −1
44 | O=C(Nc1ncnc2[nH]ncc12)c1ccccc1Sc1ccc2c(/C=C/c3ccccn3)n[nH]c2c1 |  |  | 4
45 | O=C(Nc1nc(O)nc2[nH]ncc12)c1ccccc1Sc1ccc2c(/C=C/c3ccccn3)n[nH]c2c1 |  |  | −43
46 | CCCc1cccc(NC(=O)c2ccccc2Sc2ccc3c(/C=C/c4ccccn4)n[nH]c3c2)c1 |  |  | −42
47 | CCCCCc1ccc(NC(=O)c2ccccc2Sc2ccc3c(/C=C/c4ccccn4)n[nH]c3c2)cc1 |  |  | 13
48 | CCC(C)c1ccc(NC(=O)c2ccccc2Sc2ccc3c(/C=C/c4ccccn4)n[nH]c3c2)cc1 (stereo not shown) |  |  | 81
49 | O=C(Nc1c(F)cccc1F)c1ccccc1Sc1ccc2c(/C=C/c3ccccn3)n[nH]c2c1 |  |  | −31
